Test results from patent publication US6716819B2, “Use of xylitol to reduce ionic strength and activate endogenous antimicrobials for prevention and treatment of infections” (University of Iowa Research Foundation, priority 2000, dated 2004).

What was measured:
CF epithelia = test: Transepithelial electrical properties in Ussing chambers; assay type: cell-based, human; conditions: 10 μM apical, n=9
From the text: (§1) For measurement of transepithelial electrical properties, a few epithelia from each culture preparation were mounted in Ussing chambers and studied as previously described (Zabner, J., J. J. Smith, P. H. Karp, J. H. Widdicombe, and M. J. Welsh. 1998. Loss of CFTR chloride channels alters salt absorption by cystic fibrosis airway epithelia in vitro. Mol. Cell. 2:397-403). Transepithelial resistance was 588±33 Ω·cm^2 (n=9) for non-CF and 493±24 Ω·cm^2 (n=9) for CF epithelia. The decrease in current after apical addition of 10 μM amiloride was 26.9±1.0 μA·cm^−2·hr^−1 (n=9) for non-CF epithelia and 20.0±1.3 μA·cm^−2·hr^−1 (n=9) for CF epithelia.

non-CF epithelia = test: as above; assay type: cell-based, human; conditions: 10 μM apical, n=9
From the text: as §1

P. aeruginosa = test: Growth in carbon-starved M9 media (O.D.); assay type: cell-based; conditions: M9 media supplemented at 100 mM
Procedure: FIGS. 5(A-G). […] A, B and C. Growth of P. aeruginosa (A), S. aureus, (B), and coagulase-negative Staphylococcus (C) were measured as O. D. M9 media alone is indicated by open triangle. Xylitol (closed circle), or succinate, mannitol, or sucrose (open circles), were added to M9 media at 100 mM as indicated. D. Nasal swabs were collected and cultured for 3 days in Lauria-Bertani media (open circles), in minimal M9 media (open squares), or in M9 media supplemented with 100 mM xylitol (closed circles). E, F and G. P. aeruginosa (E), S. aureus (F), and coagulase-negative Staphylococcus (G) were cultured in Lauria-Bertani media alone (open triangles), Lauria-Bertani media with 100 mM xylitol (closed circles), and Lauria-Bertani media containing tobramycin or levofloxacin (open circles).
To test the effect of xylitol on growth of different airway pathogens in a carbon-starved media, P. aeruginosa, S. aureus, and coagulase-negative Staphylococcus were grown overnight in Lauria-Bertani medium. The bacteria were then centrifuged and resuspended in M9 media containing either 100 mM succinate, mannitol, or sucrose, respectively, and grown overnight at 37° C. The bacteria were centrifuged and resuspended in M9 media alone. M9 media containing 100 mM xylitol, or 100 mM of the indicated metabolizable sugar, as positive control. The optical density (O.D.) was measured after 0, 1, 2, and 4 hours at 600 nm on a Beckman DU640 Spectrophotometer (Schaumburg, Ill.). To test the antibiotic effect of xylitol, P. aeruginosa, S. aureus, and coagulase-negative Staphylococcus were grown overnight in Lauria-Bertani medium. The bacteria were then centrifuged and resuspended in Lauria-Bertani media with and without 100 mM xylitol. As a positive control, antibiotics with specific activity to each of the bacteria were added to the media (40 μg/ml tobramycin or 40 μg/ml levofloxacin).

SMILES | decrease in current after apical addition (CF epithelia) | decrease in current after apical addition (non-CF epithelia) | growth of P. aeruginosa (P. aeruginosa)
N=C(N)NC(=O)c1nc(Cl)c(N)nc1N [amiloride] | 20.0±1.3 μA·cm^−2·hr^−1 | 26.9±1.0 μA·cm^−2·hr^−1 | –
O=C(O)CCC(=O)O [succinate, reference compound] | – | – | allowed bacterial growth
